Experimental findings from ChEMBL document CHEMBL1136407, “Binding mode of 6ECDCA, a potent bile acid agonist of the farnesoid X receptor (FXR)” (Bioorg Med Chem Lett, 2003) are described below.

A word on the EC50: it is the concentration that produces a half-maximal response.

The assay deals with T1, Bile acid receptor (Homo sapiens, UniProt Q96RI1).
T1 sequence (Q96RI1 whole entry): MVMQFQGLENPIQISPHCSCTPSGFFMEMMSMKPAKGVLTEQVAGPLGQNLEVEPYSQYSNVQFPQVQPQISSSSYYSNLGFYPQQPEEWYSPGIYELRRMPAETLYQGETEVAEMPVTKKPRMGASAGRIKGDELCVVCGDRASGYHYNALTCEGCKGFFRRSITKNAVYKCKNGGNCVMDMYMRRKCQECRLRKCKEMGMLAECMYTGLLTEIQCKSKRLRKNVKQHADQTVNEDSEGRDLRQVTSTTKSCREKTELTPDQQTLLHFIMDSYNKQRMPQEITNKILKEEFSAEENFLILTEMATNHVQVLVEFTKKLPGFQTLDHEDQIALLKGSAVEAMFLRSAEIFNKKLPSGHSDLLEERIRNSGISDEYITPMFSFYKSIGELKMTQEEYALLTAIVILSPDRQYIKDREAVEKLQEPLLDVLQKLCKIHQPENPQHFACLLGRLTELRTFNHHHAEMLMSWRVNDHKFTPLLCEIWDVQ
Briefly: Binding affinity for Farnesoid X Receptor (FXR).

The compound `C[C@H](CCC(=O)O)C1CC[C@H]2[C@@H]3[C@H](O)[C@H](Cc4ccccc4)C4C[C@H](O)CC[C@]4(C)[C@H]3CC[C@]12C` (stereo partly specified) yielded an EC50 above 30 µM.
